Data as given in patent publication US11229623B2 (GlaxoSmithKline Intellectual Property (No.2) Limited, priority 2016, dated 2022).

Target: T1, human TRPV4 (Homo sapiens, UniProt Q9HBA0)
T1 construct: expressed in transfected cells; host or cells: BHK/AC9 cells transduced with BacMam virus
Test: FLIPR assay for hTRPV4 expressed in BHK cells: inhibition of Agonist Compound-induced calcium signal
Type: cell-based
Conditions: hTRPV4 in BHK/AC9 cells, FLIPR calcium signal, agonist at EC80; reported as range class; read-out: IC50
Experimental: FLIPR Assay for hTRPV4 Expressed in BHK Cells:
TRPV4 channel activation results in an influx of divalent and monovalent cations including calcium. The resulting changes in intracellular calcium were monitored using a calcium specific fluorescent dye Fluo-4 (MDS Analytical Technologies). BHK/AC9 cells transduced with BacMam virus expressing the human TRPV4 gene at a MOI of 78 were plated in a 384 well poly-D lysine coated plate (15,000 cells/well in 50 μL culture medium containing DMEM/F12 with 15 mM HEPES, 10% FBS, 1% Penicillin-Streptomycin and 1% L-glutamine). Cells were incubated for 24 hours at 37° C. and 5% CO2. Culture medium was then aspirated using a Tecan plate-washer and replaced with 20 μL/well of dye loading buffer: HBSS, 500 μM Brilliant Black (MDS Analytical Technologies), and 2 μM Fluo-4 AM. Dye loaded plates were then incubated in the dark at room temperature for 1-1.5 hours.

T1 sequence (Q9HBA0 whole entry): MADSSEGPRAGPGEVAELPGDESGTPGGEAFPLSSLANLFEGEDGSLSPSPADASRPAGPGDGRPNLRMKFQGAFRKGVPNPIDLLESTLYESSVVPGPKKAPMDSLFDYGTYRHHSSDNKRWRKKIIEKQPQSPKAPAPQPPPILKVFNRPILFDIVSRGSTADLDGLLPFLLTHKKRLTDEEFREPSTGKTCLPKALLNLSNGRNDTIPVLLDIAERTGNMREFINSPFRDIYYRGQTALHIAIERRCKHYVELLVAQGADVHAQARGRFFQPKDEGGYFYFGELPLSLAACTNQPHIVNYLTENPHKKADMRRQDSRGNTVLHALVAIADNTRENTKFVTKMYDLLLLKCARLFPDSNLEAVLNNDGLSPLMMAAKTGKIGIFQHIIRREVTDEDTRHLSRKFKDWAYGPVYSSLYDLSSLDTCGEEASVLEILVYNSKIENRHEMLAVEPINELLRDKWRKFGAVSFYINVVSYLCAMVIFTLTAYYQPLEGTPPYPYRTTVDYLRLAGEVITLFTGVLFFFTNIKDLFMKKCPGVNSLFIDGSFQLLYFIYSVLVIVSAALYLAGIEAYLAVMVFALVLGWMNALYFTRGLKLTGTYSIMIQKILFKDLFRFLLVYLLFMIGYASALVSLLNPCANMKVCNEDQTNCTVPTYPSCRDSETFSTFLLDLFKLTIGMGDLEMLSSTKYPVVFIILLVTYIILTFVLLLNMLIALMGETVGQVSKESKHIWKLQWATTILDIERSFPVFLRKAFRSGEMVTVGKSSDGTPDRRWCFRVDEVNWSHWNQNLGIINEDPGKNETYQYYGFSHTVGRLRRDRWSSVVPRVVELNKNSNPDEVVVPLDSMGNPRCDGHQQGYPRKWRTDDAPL

First: N#Cc1ccc(O[C@H]2CN(S(=O)(=O)c3ccc(C(F)(F)F)cc3C#N)C[C@@]2(O)CO)c(OC2CC2)c1 [Example 45, 2-(((3R,4S)-4-(4-cyano-2-cyclopropoxyphenoxy)-3-hydroxy-3-(hydroxymethyl)pyrrolidin-1-yl)sulfonyl)-5-(trifluoromethyl)benzonitrile]
Second: COc1ccc(C#N)cc1O[C@H]1CN(S(=O)(=O)c2ccc(C(F)(F)F)cc2C#N)C[C@@]1(O)CO [Example 54, 2-(((3R,4S)-4-(5-cyano-2-methoxyphenoxy)-3-hydroxy-3-(hydroxymethyl)pyrrolidin-1-yl)sulfonyl)-5-(trifluoromethyl)benzonitrile]
The IC50 of the first is lower: 0.1 to 10 nM for the first, 10 to 100 nM for the second.

`N#Cc1cc(C(F)(F)F)ccc1S(=O)(=O)N1C[C@H](Oc2ccccc2)[C@](O)(CO)C1` [Example 46, 2-(((3R,4S)-3-hydroxy-3-(hydroxymethyl)-4-phenoxypyrrolidin-1-yl)sulfonyl)-5-(trifluoromethyl)benzonitrile] and `N#Cc1ccccc1S(=O)(=O)N1C[C@H](Oc2ccc(C(F)(F)F)cc2)[C@](O)(CO)C1` [Example 56, 2-(((3R,4S)-3-hydroxy-3-(hydroxymethyl)-4-(4-(trifluoromethyl)phenoxy)pyrrolidin-1-yl)sulfonyl)benzonitrile] fall in the same range of IC50: 10 to 100 nM for the first, 10 to 100 nM for the second.

`N#Cc1cc(C(F)(F)F)ccc1S(=O)(=O)N1C[C@H](Oc2ccc(F)cc2)[C@](O)(CO)C1` [Example 47, 2-(((3R,4S)-4-(4-fluorophenoxy)-3-hydroxy-3-(hydroxymethyl)pyrrolidin-1-yl)sulfonyl)-5-(trifluoromethyl)benzonitrile] and `Cc1ccc(O[C@H]2CN(S(=O)(=O)c3ccc(C(F)(F)F)cc3C#N)C[C@@]2(O)CO)cc1` [Example 51, 2-(((3R,4S)-3-hydroxy-3-(hydroxymethyl)-4-(p-tolyloxy)pyrrolidin-1-yl)sulfonyl)-5-(trifluoromethyl)benzonitrile] fall in the same range of IC50: 10 to 100 nM for the first, 10 to 100 nM for the second.

`COc1cc(Cl)ccc1O[C@H]1CN(S(=O)(=O)c2ccc(C(F)(F)F)cc2C#N)C[C@@]1(O)CO` [Example 48, 2-(((3R,4S)-4-(4-chloro-2-methoxyphenoxy)-3-hydroxy-3-(hydroxymethyl)pyrrolidin-1-yl)sulfonyl)-5-(trifluoromethyl)benzonitrile] and `COc1ccc(O[C@H]2CN(S(=O)(=O)c3ccc(C(F)(F)F)cc3C#N)C[C@@]2(O)CO)cc1` [Example 52, 2-(((3R,4S)-3-hydroxy-3-(hydroxymethyl)-4-(4-methoxyphenoxy)pyrrolidin-1-yl)sulfonyl)-5-(trifluoromethyl)benzonitrile] fall in the same range of IC50: 10 to 100 nM for the first, 10 to 100 nM for the second.

`N#Cc1ccc(O[C@H]2CN(S(=O)(=O)c3ccc(C(F)(F)F)cc3Cl)C[C@@]2(O)CO)cc1` [Example 49, 4-(((3S,4R)-1-((2-chloro-4-(trifluoromethyl)phenyl)sulfonyl)-4-hydroxy-4-(hydroxymethyl)pyrrolidin-3-yl)oxy)benzonitrile] and `N#Cc1ccc(O[C@H]2CN(S(=O)(=O)c3ccc(C(F)(F)F)cc3Cl)C[C@@]2(O)CO)cn1` [Example 74, 5-(((3S,4R)-1-((2-chloro-4-(trifluoromethyl)phenyl)sulfonyl)-4-hydroxy-4-(hydroxymethyl)pyrrolidin-3-yl)oxy)picolinonitrile] fall in the same range of IC50: 10 to 100 nM for the first, 10 to 100 nM for the second.

Compared with `N#Cc1cc(C(F)(F)F)ccc1S(=O)(=O)N1C[C@H](Oc2ccc(OC(F)(F)F)cc2)[C@](O)(CO)C1` [Example 50, 2-(((3R,4S)-3-hydroxy-3-(hydroxymethyl)-4-(4-(trifluoromethoxy)phenoxy)pyrrolidin-1-yl)sulfonyl)-5-(trifluoromethyl)benzonitrile], `N#Cc1cc(C(F)(F)F)ccc1S(=O)(=O)N1C[C@H](Oc2cnc(C(F)(F)F)nc2)[C@](O)(CO)C1` [Example 55, 2-(((3R,4S)-3-hydroxy-3-(hydroxymethyl)-4-((2-(trifluoromethyl)pyrimidin-5-yl)oxy)pyrrolidin-1-yl)sulfonyl)-5-(trifluoromethyl)benzonitrile] is higher in IC50: 0.1 to 10 nM for the first, 10 to 100 nM for the second. The first is the more potent here.

`N#Cc1cccc(O[C@H]2CN(S(=O)(=O)c3ccc(C(F)(F)F)cc3C#N)C[C@@]2(O)CO)c1` [Example 53, 2-(((3R,4S)-4-(3-cyanophenoxy)-3-hydroxy-3-(hydroxymethyl)pyrrolidin-1-yl)sulfonyl)-5-(trifluoromethyl)benzonitrile] and `N#Cc1ccc(O[C@H]2CN(S(=O)(=O)c3ccc(C(F)(F)F)cc3C#N)C[C@@]2(O)CO)cn1` [Example 69, 5-(((3S,4R)-1-((2-cyano-4-(trifluoromethyl)phenyl)sulfonyl)-4-hydroxy-4-(hydroxymethyl)pyrrolidin-3-yl)oxy)picolinonitrile] fall in the same range of IC50: 10 to 100 nM for the first, 10 to 100 nM for the second.

`N#Cc1ccc(O[C@H]2CN(S(=O)(=O)c3ccc(Cl)cn3)C[C@@]2(O)CO)c2ccccc12` [Example 57, 4-(((3S,4R)-1-((5-chloropyridin-2-yl)sulfonyl)-4-hydroxy-4-(hydroxymethyl)pyrrolidin-3-yl)oxy)-1-naphthonitrile] and `N#Cc1ccc(O[C@H]2CN(S(=O)(=O)c3ccc(Cl)cn3)C[C@@]2(O)CO)cc1F` [Example 58, 4-(((3S,4R)-1-((5-chloropyridin-2-yl)sulfonyl)-4-hydroxy-4-(hydroxymethyl)pyrrolidin-3-yl)oxy)-2-fluorobenzonitrile] fall in the same range of IC50: 10 to 100 nM for the first, 10 to 100 nM for the second.

First: N#Cc1ccc(O[C@H]2CN(S(=O)(=O)c3ccc(Cl)c4nonc34)C[C@@]2(O)CO)cc1F [Example 59, 4-(((3S,4R)-1-((7-chlorobenzo[c][1,2,5]oxadiazol-4-yl)sulfonyl)-4-hydroxy-4-(hydroxymethyl)pyrrolidin-3-yl)oxy)-2-fluorobenzonitrile]
Second: N#Cc1ccc(O[C@H]2CN(S(=O)(=O)c3ccc(C(F)(F)F)cc3Cl)C[C@@]2(O)CO)cc1F [Example 63, 4-(((3S,4R)-1-((2-chloro-4-(trifluoromethyl)phenyl)sulfonyl)-4-hydroxy-4-(hydroxymethyl)pyrrolidin-3-yl)oxy)-2-fluorobenzonitrile]
The IC50 of the first is higher: 10 to 100 nM for the first, 0.1 to 10 nM for the second. The second is the more potent here.

`N#Cc1ccc(O[C@H]2CN(S(=O)(=O)c3ccccc3C#N)C[C@@]2(O)CO)cc1F` [Example 61, 4-(((3S,4R)-1-((2-cyanophenyl)sulfonyl)-4-hydroxy-4-(hydroxymethyl)pyrrolidin-3-yl)oxy)-2-fluorobenzonitrile] and `N#Cc1ccc(O[C@H]2CN(S(=O)(=O)c3ccc(Br)cc3C#N)C[C@@]2(O)CO)cc1F` [Example 67, 4-(((3S,4R)-1-((4-bromo-2-cyanophenyl)sulfonyl)-4-hydroxy-4-(hydroxymethyl)pyrrolidin-3-yl)oxy)-2-fluorobenzonitrile] fall in the same range of IC50: 0.1 to 10 nM for the first, 0.1 to 10 nM for the second.

First: N#Cc1ccc(O[C@H]2CN(S(=O)(=O)c3cccnc3C#N)C[C@@]2(O)CO)cc1F [Example 62, 3-(((3R,4S)-4-(4-cyano-3-fluorophenoxy)-3-hydroxy-3-(hydroxymethyl)pyrrolidin-1-yl)sulfonyl)picolinonitrile]
Second: N#Cc1ccc(S(=O)(=O)N2C[C@H](Oc3ccc(C#N)c(F)c3)[C@](O)(CO)C2)cc1 [Example 71, 4-(((3S,4R)-1-((4-cyanophenyl)sulfonyl)-4-hydroxy-4-(hydroxymethyl)pyrrolidin-3-yl)oxy)-2-fluorobenzonitrile]
The IC50 of the first is lower: 0.1 to 10 nM for the first, 10 to 100 nM for the second.

First: COc1ccc(S(=O)(=O)N2C[C@H](Oc3ccc(C#N)c(F)c3)[C@](O)(CO)C2)c(Br)c1 [Example 64, 4-(((3S,4R)-1-((2-bromo-4-methoxyphenyl)sulfonyl)-4-hydroxy-4-(hydroxymethyl)pyrrolidin-3-yl)oxy)-2-fluorobenzonitrile]
Second: N#Cc1ccc(O[C@H]2CN(S(=O)(=O)c3ccc(OC(F)(F)F)cc3Br)C[C@@]2(O)CO)cc1F [Example 65, 4-(((3S,4R)-1-((2-bromo-4-(trifluoromethoxy)phenyl)sulfonyl)-4-hydroxy-4-(hydroxymethyl)pyrrolidin-3-yl)oxy)-2-fluorobenzonitrile]
The IC50 of the first is higher: 10 to 100 nM for the first, 0.1 to 10 nM for the second.

`N#Cc1ccc(O[C@H]2CN(S(=O)(=O)c3ccc(OC(F)(F)F)cc3Cl)C[C@@]2(O)CO)cc1F` [Example 66, 4-(((3S,4R)-1-((2-chloro-4-(trifluoromethoxy)phenyl)sulfonyl)-4-hydroxy-4-(hydroxymethyl)pyrrolidin-3-yl)oxy)-2-fluorobenzonitrile] and `N#Cc1ccc(S(=O)(=O)N2C[C@H](Oc3ccc(C#N)c(F)c3)[C@](O)(CO)C2)c(C(F)(F)F)c1` [Example 68, 4-(((3S,4R)-1-((4-cyano-2-(trifluoromethyl)phenyl)sulfonyl)-4-hydroxy-4-(hydroxymethyl)pyrrolidin-3-yl)oxy)-2-fluorobenzonitrile] fall in the same range of IC50: 10 to 100 nM for the first, 10 to 100 nM for the second.

`N#Cc1ccc(O[C@H]2CN(S(=O)(=O)c3ccc(C(F)(F)F)cc3)C[C@@]2(O)CO)cc1F` [Example 70, 2-fluoro-4-(((3S,4R)-4-hydroxy-4-(hydroxymethyl)-1-((4-(trifluoromethyl)phenyl)sulfonyl)pyrrolidin-3-yl)oxy)benzonitrile] and `CC(=O)c1ccc(S(=O)(=O)N2C[C@H](Oc3ccc(C#N)c(F)c3)[C@](O)(CO)C2)c(C#N)c1` [Example 72, 4-(((3S,4R)-1-((4-acetyl-2-cyanophenyl)sulfonyl)-4-hydroxy-4-(hydroxymethyl)pyrrolidin-3-yl)oxy)-2-fluorobenzonitrile] fall in the same range of IC50: 10 to 100 nM for the first, 10 to 100 nM for the second.

Molecule `N#Cc1ccc(O[C@H]2CN(S(=O)(=O)c3ccc(Cl)cc3Cl)C[C@@]2(O)CO)cn1` [Example 73, 5-(((3S,4R)-1-((2,4-dichlorophenyl)sulfonyl)-4-hydroxy-4-(hydroxymethyl)pyrrolidin-3-yl)oxy)picolinonitrile] has an IC50 of 10 to 100 nM.
